Experimental data from patent US8937050B2, “Methods and compositions for treatment of autism” (The Johns Hopkins University, priority 2011, dated 2015).

Key:
XALD fibroblasts = assay: Inhibition studies: ATP5B immunofluorescence of drug-induced mitochondrial biogenesis; assay type: cell-based, human; conditions: four days; FIG. 2A
Protocol: Performed as described in Watkins et al., 1995 using 4% formaldehyde, 1% Triton X-100, primary antibody anti-ATP5B (Millipore, Billerica, Mass.) or anti-ABCD3 (Invitrogen, Carlsbad, Calif.), and secondary antibody sheep anti-mouse IgG FITC-conjugated (Santa Cruz Biotechnology, Santa Cruz, Calif.) or goat anti-rabbit IgG rhodamine-conjugated (Jackson ImmunoResearch, West Grove, Pa.).
Antimycin A (10 ng/mL), LY294002, PD98059, RO-31-8425, SB203580, SP600125, and L-NAME were obtained from Sigma. Compound C was from EMD Biosciences (Darmstadt, Germany). Human fibroblasts were treated with each inhibitor. Then, 45-75 min later, either 4PBA, HU, TSA, or SFN was added. Cells were stained four to six days after treatment with one of the small molecules. As a control for inhibitors dissolved in DMSO, fibroblasts were treated with an equivalent amount of DMSO in the absence of inhibitor. […]
In FIGS. 2A-B, the JNK inhibitor SP600125 (10 μM+inh) was utilized. […] XALD fibroblasts were treated with each drug for four days with or without SP600125. (400× magnification). […] Normal human fibroblasts were treated with each of the small four molecules with or without SP600125 for six days. Quantitative in-cell western analyses were performed using anti-ATP5B.

JUN, PGC1α and PGC1β = assay: RT-PCR of JUN and mitochondrial transcription factors; assay type: cell-based, human; conditions: FIG. 2E; for PGC1α and PGC1β transcript levels (abundance of mitochondrial transcription factors): 48 hours or more of treatment; for JUN transcript levels: normal human fibroblasts, six hours of treatment
Protocol: (§1) Following the manufacturer's protocols, DNase I-treated cDNA was synthesized using Superscript III or Thermoscript reverse transcriptase (Invitrogen). PCR reactions were performed in duplicate on the Roche Lightcycler 3.5 (Basel, Switzerland) or the Bio-Rad iCycler (Hercules, Calif.) using Quantitech SYBR green PCR mix (Qiagen, Valencia, Calif.). GeNorm software calculated a normalization factor for each sample using the relative amounts of at least two of the following reference genes, β2-microglobulin, glyceraldehyde-6-phosphate, actin, and/or eukaryotic elongation factor 1A (Vandesompele et al., 2002).
The relative gene expression for each treatment compared to untreated normal human fibroblasts was calculated and the fold change (drug treated/untreated) is shown.

JNK pathway = assay: Immunoblot analysis of JNK phosphorylation; assay type: cell-based; conditions: normal human fibroblasts, within 24 hours; FIG. 2F
Protocol: (§2) Cell lysates were collected in mammalian protein extraction reagent (m-PER; Thermo Scientific, Rockford, Ill.) plus 1×protease inhibitor (Sigma-Aldrich) and 1×Halt phosphatase inhibitor (Thermo Scientific). Denatured SDS-PAGE and immunoblot analyses were performed using the following antibodies: phosphorylated JNK and β-actin from Santa Cruz Biotechnology, HSP70, HSP90, BIP, phosphorylated eIF2α, and XBP1 from Cell Signaling, APG8 (Abgent, San Diego, Calif.), and SOD2 (Stressgen, Ann Arbor, Mich.). Quantitation was performed using a Fuji Intelligent Dark box II, FUJI LAS-1000 Lite software and Image Gauge v4.22 software (Tokyo, Japan).
Normal human fibroblasts were treated at various time points. Treatment was initiated at the indicated times prior to collection. The average of the maximum protein expression (within 24 hours) for three or more independent experiments is shown as fold change (drug treated/untreated). Actin (43 kDa) was the loading control. M denotes the marker lane. […] The * statistically significant increase in a measurement between drug treated and untreated or control samples or a statistically significant decrease in a measurement between drug treated and drug treated samples in the presence of SP600125 (p≦0.05) (n≧3 independent experiments unless otherwise noted) (Bars=SEM).

[1] = system: HSPA1A (HSP70), DNAJC3 (HSP40), HSP90AA1 (HSP90); assay: RT-PCR of heat shock response (HSR) genes; assay type: cell-based, human; conditions: for transcription of HSPA1A (HSP70): FIG. 3A
Protocol: as §1
(§3) Expression of key components of the HSR, UPR, the autophagic response, and the antioxidant response were monitored at the transcriptional, translational, and/or post-translational level. […] Due to the transient nature of these responses, several components of each pathway were monitored at various time points within a 24 hour treatment. At least two normal human fibroblast lines were tested in three or more independent experiments. […] The average of the maximal increase in protein expression within a 24 hour time frame was also compared to the untreated sample. Activation of each pathway was assessed by an increase in one or more components of each pathway.
To evaluate its activation, the expression of heat shock protein (HSP) 40, HSP 70, and HSP 90 family members was monitored. […] Normal human fibroblasts were treated and the mRNA expression of HSPA1A (HSP70), DNAJC3 (HSP40), and HSP90AA1 (HSP90) was measured and plotted as in FIG. 2E.

HSP70 and HSP90 = assay: Immunoblot analyses of HSP expression; assay type: cell-based, human; conditions: for heat shock response (HSR): normal human fibroblasts
Protocol: as §2, §3
Normal human fibroblasts were treated at various time points within 24 hours and the average of the maximum protein expression of HSP70 (70 kDa) and HSP90 (90 kDa) is plotted as in FIG. 2F. Actin (43 kDa) was used as a loading control. (UT=untreated cells; * statistical significance (p≦0.05); Bars=SEM for n≧3 independent experiments).

BCN1 and ATG5 = assay: RT-PCR of autophagy genes; assay type: cell-based, human; conditions: for ATG5 mRNA levels / BCN1 mRNA levels: normal human fibroblasts, FIG. 5A
Protocol: as §1, §3
To monitor activation of autophagy, the expression of three classical autophagy markers was examined. The three classical autophagy markers are: (i) beclin-1 (BCN1), (ii) autophagy protein 5 (ATG5), and (iii) microtubule-associated protein 1 light chain 3 (LC3 or APG8). […] Normal human fibroblasts were treated as indicated. The expression of BCN1 and ATG5 were measured as described in FIG. 2E. After TSA treatment, the levels of ATG5 mRNA were measured in two independent experiments in duplicate.

NFE2L2, HMOX1, and SOD2 = assay: RT-PCR of antioxidant genes; assay type: cell-based, human; conditions: for HMOX1 mRNA levels / NFE2L2 mRNA levels / SOD2 mRNA levels: normal human fibroblasts, 18 hours, FIG. 5C
Protocol: as §1
The expression of three key components was examined—(i) nuclear factor erythroid 2-like 2 (NFE2L2), (ii) heme oxygenase 1 (HMOX1), and (iii) superoxide dismutase 2 (SOD2). […] Normal human fibroblasts were treated for 18 hours. The expression of NFE2L2, HMOX1, and SOD2 was measured as described in FIG. 2E.

[2] = system: spinal muscular atrophy fibroblasts; assay: Mitotracker Red CMXROS staining; assay type: cell-based, human; conditions: 2.5 mM 4PBA, HU, 100 nM TSA or 2.5 mM SFN for 5 days; FIG. 7
Protocol: SMA type I (GM00232) fibroblasts were treated with 2.5 mM 4PBA, 300 mM HU, 100 nM TSA or 2.5 mM SFN for 5 days, live stained with 25 nM Mitotracker Red CMXROS (Invitrogen) in pre-warmed MEM media for 15 min at 37° C. in a CO2 incubator. Stained cells were washed with pre-warmed MEM, washed with PBS and excess PBS was removed. The cells were examined under the microscope at ×80.
Spinal muscular atrophy fibroblasts were treated with 2.5 mM 4PBA, 300 mM HU, 100 nM TSA or 2.5 mM SFN for 5 days (×80 magnification).

human recombinant SIRT1 = biological target: T1, human recombinant SIRT1 (Homo sapiens, UniProt Q96EB6); assay: Fluorescence-based SIRT1 activity assay; assay type: biochemical; conditions: for SIRT1 activity: low and high (10 times) concentration, FIG. 9
T1 construct: purchased Cayman Chemical Company 10010401
T1 sequence (Q96EB6 1-747): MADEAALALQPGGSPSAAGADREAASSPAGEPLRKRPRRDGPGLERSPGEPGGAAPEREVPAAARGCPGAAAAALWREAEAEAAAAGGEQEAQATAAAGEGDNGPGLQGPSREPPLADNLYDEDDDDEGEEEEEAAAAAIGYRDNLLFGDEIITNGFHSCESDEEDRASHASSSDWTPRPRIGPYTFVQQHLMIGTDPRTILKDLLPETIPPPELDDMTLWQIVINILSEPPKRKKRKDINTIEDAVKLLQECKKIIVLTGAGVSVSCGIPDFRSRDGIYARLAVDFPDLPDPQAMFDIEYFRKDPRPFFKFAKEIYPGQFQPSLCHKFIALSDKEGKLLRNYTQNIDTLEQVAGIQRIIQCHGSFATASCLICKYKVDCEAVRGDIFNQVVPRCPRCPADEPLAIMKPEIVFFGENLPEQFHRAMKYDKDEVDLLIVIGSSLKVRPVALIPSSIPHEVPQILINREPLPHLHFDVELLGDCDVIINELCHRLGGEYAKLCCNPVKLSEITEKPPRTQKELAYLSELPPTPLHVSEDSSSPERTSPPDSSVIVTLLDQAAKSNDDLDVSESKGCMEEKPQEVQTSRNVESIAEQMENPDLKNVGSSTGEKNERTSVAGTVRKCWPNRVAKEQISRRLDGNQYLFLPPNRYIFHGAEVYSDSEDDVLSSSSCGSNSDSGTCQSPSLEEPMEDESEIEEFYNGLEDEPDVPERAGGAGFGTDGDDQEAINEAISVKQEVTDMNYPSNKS
Protocol: A fluorescence-based SIRT1 activity assay was performed in triplicate following the manufacturer's protocol (10010401; Cayman Chemical Company, Ann Arbor, Mich., USA). The percent developer interference was below 3% for each small molecule. The percent fluorophore interference was below 9% for each small molecule. The acceptable interference values were ≦10%.
To determine whether SIRT1 activation was a common biochemical activity of the small molecules under study, a fluorescence-based in vitro SIRT1 activity assay was performed with two concentrations of each drug: that used to treat normal primary human fibroblasts in the experiments reported here (low), and 10 times that concentration, which is lethal in cell culture (high). […] This was a non-cell-based assay, and therefore, it is difficult to determine the effects of 4PBA and SFN on SIRT1 activity in vivo. Regardless, while SIRT1 activation may play a role in the induction of cellular stress responses (Anastasiou et al., 2006), direct biochemical activation or inhibition of SIRT1 is not necessary for the common pharmacological induction of the adaptive cell survival response by all four small molecules.
SIRT1 activity assay. SIRT1 activity was measured by incubating an acetylated lysine substrate with human recombinant SIRT1, cosubstrate NAD+ and the indicated concentration of each small molecule. The percent inhibition of SIRT1 is plotted. (Bars=SEM for triplicate measurements; *p≦0.05; paired t-test).

Row | Compound | mitochondrial biogenesis in XALD fibroblasts (XALD fibroblasts) | PGC1α and PGC1β transcript levels (abundance of mitochondrial transcription factors) (JUN, PGC1α and PGC1β) | JUN transcript levels (JUN, PGC1α and PGC1β) | JNK pathway (JNK phosphorylation) (JNK pathway) | transcription of HSPA1A (HSP70) ([1]; normal human fibroblasts) | heat shock response (HSR) (HSP70 and HSP90) | ATG5 mRNA levels (BCN1 and ATG5) | BCN1 mRNA levels (BCN1 and ATG5) | HMOX1 mRNA levels (NFE2L2, HMOX1, and SOD2) | NFE2L2 mRNA levels (NFE2L2, HMOX1, and SOD2) | SOD2 mRNA levels (NFE2L2, HMOX1, and SOD2) | mitochondrial biogenesis (Mitotracker staining) [2] | SIRT1 activity (human recombinant SIRT1) | other results
1 | CC(/C=C/C(=O)NO)=C\[C@@H](C)C(=O)c1ccc(N(C)C)cc1 [TSA, trichostatin A] | increased | increased | significantly increased | activated | increased | activated | increased | increased | significantly increased | increased | increased | induced | no effect | 
2 | 4-phenylbutyrate [4PBA] | increased | increased | significantly increased | activated | increased | activated | increased | increased | significantly decreased | increased | increased | induced |  | inhibition of SIRT1 activity (human recombinant SIRT1; 50 mM, high): 54%
3 | C[S@@+]([O-])CCCCN=C=S [SFN, 1-isothiocyanato-4R-(methylsulfinyl)butane] | increased | increased | not consistently changed | activated | increased | activated | increased | increased | significantly increased | increased | increased | induced |  | transcription of HSP40 increase ([1]; in vitro sulforaphane studies): 3 fold; transcription of HSP70 increase ([1]; in vitro sulforaphane studies): 7 fold; transcription of HSP 90 increase ([1]; in vitro sulforaphane studies): 3 fold; mRNA expression of heat-shock proteins genes increase ([1]; normal human fibroblasts, 5 micromolar (μM)): 3-7 fold; total HSP70 protein levels increase (HSP70 and HSP90; in vitro sulforaphane studies): 3-4 fold; total HSP90 protein levels increase (HSP70 and HSP90; in vitro sulforaphane studies): 3-4 fold; ATG5 mRNA levels increase (BCN1 and ATG5; in vitro sulforaphane studies): 3 fold; BCN1 mRNA levels increase (BCN1 and ATG5; in vitro sulforaphane studies): 5 fold; expression of HMOX1 increase (NFE2L2, HMOX1, and SOD2; in vitro sulforaphane studies): 6 fold; expression of NFE2L2 increase (NFE2L2, HMOX1, and SOD2; in vitro sulforaphane studies): 3 fold; expression of SOD2 increase (NFE2L2, HMOX1, and SOD2; in vitro sulforaphane studies): 4 fold; inhibition at 5000 µM (human recombinant SIRT1; 5 mM): 14%; inhibition at 50000 µM (human recombinant SIRT1; 50 mM): 40%
4 | NC(=O)NO [HU, hydroxyurea] | increased | increased | significantly increased | activated | not stimulated | activated | increased | not reproducibly changed | significantly increased | increased | increased | induced | no effect | 
